According to patent US11267802B2 (BEBETTER MED INC., priority 2015, dated 2022):

Assays:
EGFR T790M/L858R = biological target: T1, EGFR T790M/L858R (Homo sapiens, UniProt P00533, L858R/T790M); assay: Mutant EGFR T790M/L858R activity inhibition assay (Caliper mobility shift); assay type: biochemical; details: read-out: enzyme activity inhibition (IC50) EGFR T790M/L858R
T1 construct: purchased Invitrogen PR8911A
Description: The assay procedure is as follows. […] 5 μl of the compound dissolved in 10% DMSO at a concentration of 5-fold of the final reaction concentration was added to a 384 well plate. 5 μl of 10% DMSO was used in a no-compound control well, while 5 μl of a kinase buffer was used in a no-enzyme activity control well. […] The conversion rate was read on Caliper EZ Reader II (Caliper Life Sciences). The conversion rate was then converted to inhibitory rate.
As used herein, “max” refers to the conversion rate of the DMSO no-compound control well, and “min” refers to the conversion rate of the no-enzyme activity control well. A curve was obtained by plotting the inhibitory rate as a function of the compound concentration. The XLFit excel add-in version 4.3.1 software was used to fit the curve and calculate the IC50. Inhibitory rate %=(max−conversion rate)/(max−min)×100.

H1975 = assay: Inhibition assay on tumor cell proliferation (CellTiter-Glo), H1975; assay type: cell-based, Human; details: Homo sapiens, NCI-H1975; H1975 (L858R and T790M EGFR double mutation), 72 hours, 10% bovine serum
LOVO = assay: Inhibition assay on tumor cell proliferation (CellTiter-Glo), LOVO; assay type: cell-based, Human; details: Homo sapiens; LOVO (wild-type EGFR), 72 hours, 10% bovine serum
Description: (§1) By using a CellTiter-Glo luminescence cell viability test kit (Promega, # G7572), the content of adenosine triphosphate (ATP) was determined to assess the cell viability.
(§2) Human colon cancer cell line LOVO and human non-small-cell lung cancer H358 express wild-type EGFR. Human non-small-cell lung cancer cell line HCC827 carries deletion mutation in exon 19 (ex19del). Those cell lines are purchased from Shanghai Fudan IBS Cell Resource Center and American Tissue Culture Collection (ATCC).
(§3) The assay procedure is as follows. The cells in a cell culture plate were digested with a pancreatic enzyme, re-suspended in a DPBS culture medium, and had the cell density counted by Scepter automated cytometer (Millipore # PHCC00000). The cells were diluted to a solution of 44,000 cells per ml. The cell solution with adjusted density was added to the cell assay plate at 90 microliters per well. The plate was placed in an incubator with 5% CO2 at 37° C. for 24 hours of incubation, and then added with different concentrations of subject compounds. The cells were incubated for 72 hours with the compounds in presence of 10% bovine serum. The content of ATP was determined by a CellTiter-Glo® Luminescent Cell Viability Assay kit (see the manufacturer's instruction for details) to evaluate cell-growth inhibition.
(§4) Briefly, 30 μl of CellTiter-Glo® reagent was added to each well, and then shaken for 10 minutes to induce cell lysis. The fluorescent signal was detected and recorded by Fluoroskan Ascent FL (Thermo). The max signal value was obtained from the cells treated by dimethyl sulfoxide for 72 hours. The min signal value was obtained from the medium alone (the number of the cells was 0). Inhibitory rate %=(max signal value−compound signal value)/(max signal value−min signal value)×100. The data was processed by GraphPad Prism V5.0 software (GraphPad Software, San Diego, Calif.). Sigmoidal dose-response curve fitting was performed to calculate the IC50 value.

H358 = assay: Inhibition assay on tumor cell proliferation (CellTiter-Glo), H358; assay type: cell-based, Human; details: Homo sapiens, NCI-H358; H358 (wild-type EGFR), 72 hours, 10% bovine serum
Description: as §1, §2, §3, §4

T1 sequence (P00533 25-1210 T790M/L858R): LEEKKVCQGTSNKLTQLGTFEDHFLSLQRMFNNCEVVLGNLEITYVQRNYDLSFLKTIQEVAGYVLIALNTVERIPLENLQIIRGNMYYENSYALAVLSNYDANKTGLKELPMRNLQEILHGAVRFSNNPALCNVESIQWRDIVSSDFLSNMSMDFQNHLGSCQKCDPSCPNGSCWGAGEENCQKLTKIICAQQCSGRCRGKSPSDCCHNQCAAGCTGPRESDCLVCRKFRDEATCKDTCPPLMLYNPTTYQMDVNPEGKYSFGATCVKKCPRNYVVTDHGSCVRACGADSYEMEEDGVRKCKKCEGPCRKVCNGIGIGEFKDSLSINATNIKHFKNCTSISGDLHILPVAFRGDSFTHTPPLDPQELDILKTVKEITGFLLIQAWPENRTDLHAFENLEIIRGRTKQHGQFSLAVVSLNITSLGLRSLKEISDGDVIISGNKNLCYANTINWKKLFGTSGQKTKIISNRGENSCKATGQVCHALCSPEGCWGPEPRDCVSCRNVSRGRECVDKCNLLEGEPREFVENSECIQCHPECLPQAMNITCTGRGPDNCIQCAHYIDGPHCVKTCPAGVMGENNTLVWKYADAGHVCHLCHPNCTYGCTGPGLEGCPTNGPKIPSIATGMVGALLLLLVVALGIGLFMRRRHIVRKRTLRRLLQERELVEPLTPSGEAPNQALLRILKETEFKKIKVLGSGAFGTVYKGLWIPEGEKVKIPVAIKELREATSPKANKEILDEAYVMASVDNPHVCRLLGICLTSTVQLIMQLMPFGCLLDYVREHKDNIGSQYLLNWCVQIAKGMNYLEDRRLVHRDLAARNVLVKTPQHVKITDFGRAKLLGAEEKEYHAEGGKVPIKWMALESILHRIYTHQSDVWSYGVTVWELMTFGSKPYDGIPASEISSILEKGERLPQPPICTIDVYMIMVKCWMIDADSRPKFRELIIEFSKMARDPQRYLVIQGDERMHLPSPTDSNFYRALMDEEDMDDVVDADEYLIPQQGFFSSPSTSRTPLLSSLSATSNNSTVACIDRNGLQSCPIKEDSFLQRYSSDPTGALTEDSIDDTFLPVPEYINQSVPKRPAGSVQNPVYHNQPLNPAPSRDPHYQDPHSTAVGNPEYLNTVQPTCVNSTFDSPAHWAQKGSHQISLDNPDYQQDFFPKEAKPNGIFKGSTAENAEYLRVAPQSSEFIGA

Row | Compound | IC50 (EGFR T790M/L858R) [nM] | IC50 (H1975) [nM] | IC50 (LOVO) [nM] | IC50 (H358) [nM] | melting point [°C]
1 | C=CC(=O)Nc1cc(Nc2ncc(OC)c(-n3ccc4ccccc43)n2)c(OC)cc1N(C)CCN(C)C [Compound 6, N-(5-((4-(1H-indol-1-yl)-5-methoxypyrimidin-2-yl)amino)-2-((2-(dimethylamino)ethyl)(methyl)amino)-4-methoxyphenyl)acrylamide] | 1 to 10 | < 10 | > 1000 | > 1000 | 143.3 to 147.8
2 | C=CC(=O)Nc1cc(Nc2ncc(N(C)C)c(-n3ccc4ccccc43)n2)c(OC)cc1N(C)CCN(C)C [Compound 10, N-(5-(5-(dimethylamino)-4-(1H-indol-1-yl)pyrimidin-2-ylamino)-2-((2-(dimethylamino)ethyl)(methyl)amino)-4-methoxyphenyl)acrylamide] | 1 to 10 | < 10 | > 1000 | 100 to 1000 | 154 to 155
3 | C=CC(=O)Nc1cc(Nc2nccc(-n3ccc4cc(OC)ccc43)n2)c(OC)cc1N(C)CCN(C)C [Compound 27, N-(2-((2-(dimethylamino)ethyl)(methyl)amino)-4-methoxy-5-((4-(5-methoxy-1H-indol-1-yl)pyrimidin-2-yl)amino)phenyl)acrylamide] | < 1 | < 10 | > 1000 | 100 to 1000 | 117 to 118
4 | C=CC(=O)Nc1cc(Nc2nccc(-n3ccc4cc(F)ccc43)n2)c(OC)cc1N(C)CCN(C)C [Compound 28, N-(2-((2-(dimethylamino)ethyl)(methyl)amino)-5-((4-(5-fluoro-1H-indol-1-yl)pyrimidin-2-yl)amino)-4-methoxyphenyl)acrylamide] | < 1 | < 10 | > 1000 | 100 to 1000 | 168 to 170
5 | C=CC(=O)Nc1cc(Nc2nccc(-n3ccc4ccc(F)cc43)n2)c(OC)cc1N(C)CCN(C)C [Compound 29, N-(2-((2-(dimethylamino)ethyl)(methyl)amino)-5-((4-(6-fluoro-1H-indol-1-yl)pyrimidin-2-yl)amino)-4-methoxyphenyl)acrylamide] | < 1 | < 10 | > 1000 | 100 to 1000 | 164 to 165
6 | C=CC(=O)Nc1cc(Nc2nccc(-n3ccc4c(F)cccc43)n2)c(OC)cc1N(C)CCN(C)C [Compound 30, N-(2-((2-(dimethylamino)ethyl)(methyl)amino)-5-((4-(4-fluoro-1H-indol-1-yl)pyrimidin-2-yl)amino)-4-methoxyphenyl)acrylamide] | < 1 | < 10 | > 1000 | 100 to 1000 | 165.5 to 166.5
7 | C=CC(=O)Nc1cc(Nc2nccc(-n3ccc4cc(C#N)ccc43)n2)c(OC)cc1N(C)CCN(C)C [Compound 33, N-(5-((4-(5-cyano-1H-indol-1-yl)pyrimidin-2-yl)amino)-2-((2-(dimethylamino)ethyl)(methyl)amino)-4-methoxyphenyl)acrylamide] | < 1 | < 10 | > 1000 | 100 to 1000 | 127 to 128
8 | C=CC(=O)Nc1cc(Nc2nccc(-n3ccc4cc(O)ccc43)n2)c(OC)cc1N(C)CCN(C)C [Compound 36, N-(2-((2-(dimethylamino)ethyl)(methyl)amino)-5-((4-(5-hydroxy-1H-indol-1-yl)pyrimidin-2-yl)amino)-4-methoxyphenyl)acrylamide] | < 1 | < 10 | > 1000 | 100 to 1000 | 218 to 219
9 | C=CC(=O)Nc1cc(Nc2nccc(-n3ccc4cc(OCCO)ccc43)n2)c(OC)cc1N(C)CCN(C)C [Compound 37, N-(2-((2-(dimethylamino)ethyl)(methyl)amino)-5-((4-(5-(2-hydroxyethoxy)-1H-indol-1-yl)pyrimidin-2-yl)amino)-4-methoxyphenyl)acrylamide] | < 1 | < 10 | > 1000 | 100 to 1000 | 65 to 67
10 | C=CC(=O)Nc1cc(Nc2nccc(-n3ccc4cc(OCCOC)ccc43)n2)c(OC)cc1N(C)CCN(C)C [Compound 38, N-(2-((2-(dimethylamino)ethyl)(methyl)amino)-4-methoxy-5-((4-(5-(2-methoxyethoxy)-1H-indol-1-yl)pyrimidin-2-yl)amino)phenyl)acrylamide] | < 1 | < 10 | > 1000 | 100 to 1000 | 59 to 61
11 | C=CC(=O)Nc1cc(Nc2nccc(-n3ccc4cc(C(N)=O)ccc43)n2)c(OC)cc1N(C)CCN(C)C [Compound 41, 1-(2-((5-acrylamido-4-((2-(dimethylamino)ethyl)(methyl)amino)-2-methoxyphenyl)amino)pyrimidin-4-yl)-1H-indole-5-carboxamide] | < 1 | < 10 | > 1000 | 100 to 1000 | 121.3 to 125.1
12 | C=CC(=O)Nc1cc(Nc2nccc(-n3cc(Cl)c4ccccc43)n2)c(OC)cc1N(C)CCN(C)C [Compound 46, N-(5-((4-(3-chloro-1H-indol-1-yl)pyrimidin-2-yl)amino)-2-((2-(dimethylamino)ethyl)(methyl)amino)-4-methoxyphenyl)acrylamide] | 1 to 10 | 10 to 50 | > 1000 | > 1000 | 142 to 144
13 | C=CC(=O)Nc1cc(Nc2nccc(-n3c(=O)n(C)c4cc(Cl)ccc43)n2)c(OC)cc1N(C)CCN(C)C [Compound 51, N-(5-(4-(5-chloro-3-methyl-2-oxo-2,3-dihydro-1H-benzo[d]imidazol-1-yl)pyrimidin-2-ylamino)-2-((2-(dimethylamino)ethyl)(methyl)amino)-4-methoxyphenyl)acrylamide] | < 1 | < 10 | > 1000 | 100 to 1000 | 70 to 71
14 | C=CC(=O)Nc1cc(Nc2nccc(-n3c(=O)n(C)c4cc(C#N)ccc43)n2)c(OC)cc1N(C)CCN(C)C [Compound 52, N-(5-((4-(5-cyano-3-methyl-2-oxo-2,3-dihydro-1H-benzo[d]imidazol-1-yl)pyrimidin-2-yl)amino)-2-((2-(dimethylamino)ethyl)(methyl)amino)-4-methoxyphenyl)acrylamide] | < 1 | < 10 | > 1000 | 100 to 1000 | 183 to 185
15 | C=CC(=O)Nc1cc(Nc2ncc(OC)c(-n3c(=O)n(C)c4ccccc43)n2)c(OC)cc1N(C)CCN(C)C [Compound 57, N-(2-((2-(dimethylamino)ethyl) (methyl)amino)-4-methoxy-5-((5-methoxy-4-(3-methyl-2-oxo-2,3-dihydro-1H-benzo[d]imidazol-1-yl)pyrimidin-2-yl)amino)phenyl)acrylamide] | 1 to 10 | 10 to 50 | > 1000 | > 1000 | 168 to 172
16 | COc1cc(N(C)CCN(C)C)c(NC(=O)/C=C/CN(C)C)cc1Nc1nccc(-n2ccc3ccccc32)n1 [Compound 69, (E)-N-(5-((4-(1H-indol-1-yl)pyrimidin-2-yl)amino)-2-((2-(dimethylamino)ethyl)(methyl)amino)-4-methoxyphenyl)-4-(dimethylamino)but-2-enamide] | < 1 | 50 to 100 | 100 to 1000 | 100 to 1000 | 116.2 to 118.1
17 | CC#CC(=O)Nc1cc(Nc2nccc(-n3ccc4ccccc43)n2)c(OC)cc1N(C)CCN(C)C [Compound 73, N-(5-((4-(1H-indol-1-yl)pyrimidin-2-yl)amino)-2-((2-(dimethylamino)ethyl)(methyl)amino)-4-methoxyphenyl)but-2-ynamide] | 1 to 10 | 50 to 100 | > 1000 | > 1000 | 189.7 to 191.8
